In ChEMBL document CHEMBL5096192, “Recent advancements in anti-leishmanial research: Synthetic strategies and structural activity relationships” (Eur J Med Chem, 2021):

What was measured:
Leishmania amazonensis [1] = assay: Antileishmanial activity against promastigote form of Leishmania amazonensis MHOM/BR/79/Maria assessed as inhibition of parasite growth measured after 48 hrs by resazurin staining based fluorescence analysis; format: functional, organism-based
Leishmania infantum [2] = assay: Antileishmanial activity against Leishmania infantum MCAN/ES/92/BCN83 intracellular amastigotes infected in mouse J774 macrophages assessed as inhibition of parasite growth incubated for 48 hrs by fluorometric analysis; format: functional, organism-based; settings: MCAN/ES/92/BCN83, J774, 48 h
Leishmania amazonensis [3] = assay: Antileishmanial activity against Leishmania amazonensis MHOM/BR/79/Maria intracellular amastigotes infected in mouse J774 macrophages assessed as inhibition of parasite growth incubated for 48 hrs by fluorometric analysis; format: functional, organism-based; settings: J774, 48 h
Leishmania infantum [4] = assay: Antileishmanial activity against promastigote form of Leishmania infantum MCAN/ES/92/BCN83 assessed as inhibition of parasite growth measured after 48 hrs by resazurin staining based fluorescence analysis; format: functional, organism-based; settings: MCAN/ES/92/BCN83, 48 h
[5] = molecular target: Trypanothione reductase (Leishmania donovani) (UniProt P39050); assay: Inhibition of Leishmania donovani trypanothione reductase expressed in Escherichia coli BL21(DE3) using TS2 and NADPH as substrate at 100 uM preincubated for 5 mins followed by substrate addition by DTNB-reagent based spectrophotometric method
Chain of Trypanothione reductase (Leishmania donovani) (P39050 whole entry): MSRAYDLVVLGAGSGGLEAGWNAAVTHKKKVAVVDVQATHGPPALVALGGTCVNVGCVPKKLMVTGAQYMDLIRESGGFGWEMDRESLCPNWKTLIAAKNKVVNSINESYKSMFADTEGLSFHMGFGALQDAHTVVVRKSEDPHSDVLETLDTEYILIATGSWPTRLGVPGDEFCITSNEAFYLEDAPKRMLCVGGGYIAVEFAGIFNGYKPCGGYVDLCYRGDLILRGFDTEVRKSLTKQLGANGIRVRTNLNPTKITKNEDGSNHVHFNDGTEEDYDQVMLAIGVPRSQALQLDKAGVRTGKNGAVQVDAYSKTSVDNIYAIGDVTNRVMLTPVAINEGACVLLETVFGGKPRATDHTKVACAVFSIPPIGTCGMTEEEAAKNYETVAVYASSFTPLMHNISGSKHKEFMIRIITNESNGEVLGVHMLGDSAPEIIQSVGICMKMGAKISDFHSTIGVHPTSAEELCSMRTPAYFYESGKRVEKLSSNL

Leishmania donovani = assay: Antileishmanial activity against Leishmania donovani MHOM/IN/80/Dd8 intracellular amastigotes transfected with firefly luciferase gene infected in mouse J774.A1 cells assessed as parasite growth inhibition incubated for 96 hrs by Steady Glo reagent based luminescence assay; format: functional, organism-based; settings: MHOM/IN/80/Dd8, J774.A1, 96 h

FC(F)(F)c1nc2cc(Cl)c(Cl)cc2[nH]1
IC50 (Leishmania amazonensis [1]): 4.11 µM | IC50 (Leishmania infantum [2]): 15.8 µM | IC50 (Leishmania amazonensis [3]): 9 µM | IC50 (Leishmania infantum [4]): 8.63 µM

CCOC(=O)c1cc2c([nH]c3ccccc32)c(C(C(=O)NC(C)(C)C)N(Cc2ccc(CC)cc2)C(=O)c2ccccc2)n1 (stereo unspecified)
inhibition [5]: 87% | IC50 (Leishmania donovani): 2.43 µM
